From PubChem BioAssay (NCI) come the findings set out here.

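The compound was tested at five concentrations on cells cultured in 96-well plates, with a 48-hour exposure period. TGI is the concentration that stops growth completely.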

Holding throughout (assay): NCI tumour cell line growth inhibition, 48 h
The test system of assay [1] is BT-549 breast.
Assay [2] deals with CAKI-1 renal.
In assay [3] the test system is HOP-92 NSCLC.
For assay [4], the system named is IGROV1 ovarian.
The test system of assay [5] is KM12 colon.
Assay [6] concerns MDA-MB-435.
For assay [7], the system named is MDA-N.
In assay [8] the test system is MOLT-4 leukemia.
Assay [9] deals with NCI-H226 lung.
Assay [10] concerns NCI-H460 lung.
The test system of assay [11] is NCI/ADR-RES ovarian.
Assay [12] has as its system PC-3 prostate.
The test system of assay [13] is SF-539 CNS.
For assay [14], the system named is SNB-19 CNS.
In assay [15] the test system is SR leukemia.
Assay [16] concerns SW-620 colon.
Assay [17] concerns T-47D breast.
Assay [18] has as its system TK-10 renal.
Assay [19] has as its system U251 CNS.
The subject of assay [20] is UO-31 renal.

For `CCN(CC)/[N+]([O-])=N/OCOC`, the TGI in assay [1], in assay [2], in [3], in [4], in assay [5] and in assay [6] was over 100 µM throughout. Moreover, the TGI in assay [7], in [8], in assay [9], in assay [10], in assay [11] and in assay [12] was over 100 µM in each case. The TGI in assay [13], in [14], in [15], in [16], in assay [17] and in assay [18] was over 100 µM throughout. The TGI in assay [19] and in [20] was over 100 µM in each case.
Take `CSC1(C(=O)O)C2CCC3C2CCC31` (stereo not given): the TGI in [1], in assay [2], in [3], in assay [4], in [5] and in assay [6] was over 100 µM each time. Also, the TGI in [7], in assay [8], in assay [9], in assay [10], in [11] and in [12] was over 100 µM throughout. Besides, the TGI in assay [13], in assay [14], in [15], in assay [16], in assay [17] and in assay [18] was over 100 µM throughout. In addition, the TGI in assay [19] and in [20] was over 100 µM each time.
Consider `CN1C(=O)[C@H](c2c[nH]c3ccccc23)[C@H](c2c[nH]c3ccccc23)C1=O`, for which the TGI is 55.7 µM in assay [1]; over 38.8 µM in assay [2]; over 67.3 µM in assay [3]; over 45.3 µM in [4]; over 100 µM in [5]; over 77.6 µM in [6]. Further, the TGI in assay [7] was over 100 µM; in assay [8] it was over 77 µM; in assay [9] it was 97.6 µM; in [10] it was over 50.1 µM; in assay [11] it was over 85.9 µM; in [12], over 80.4 µM. The TGI in assay [13] is over 54.3 µM; in assay [14], over 100 µM; in assay [15] it was over 74.5 µM; in [16], over 100 µM; in [17], over 100 µM; in [18], 61.2 µM. Also, the TGI was over 90.1 µM in assay [19] and 62.4 µM in assay [20].
In the case of `COC(=O)[C@@H](NC(=O)[C@H](N)Cc1ccc(N(CCCl)CCCl)cc1)C(C)C`, the TGI in assay [1] was found to be 65.3 µM; in assay [2], 7.53 µM; in assay [3], 5.72 µM; in [4], 45.1 µM; in assay [5] it was 66.4 µM; in assay [6], 47.5 µM. Also, the TGI in [7] was over 68 µM; in [8] it was 0.234 µM; in [9] it was 59.2 µM; in assay [10] it was 26.3 µM; in [11], 40.8 µM; in assay [12], over 100 µM. Also, the TGI was 67.6 µM in [13]; over 100 µM in [14]; over 38.6 µM in assay [15]; over 77.3 µM in [16]; 35.5 µM in assay [17]; 56.7 µM in [18]. The TGI in assay [19] is over 100 µM; in [20], 33 µM.
Consider `Cc1nc2c(O)c3c(c(O)c2nc1C)C1C=CC3CC1`, for which the TGI in assay [1] stood at 30.4 µM; in assay [2] it was 14.9 µM; in assay [3] it was 7.75 µM; in assay [4], 17.9 µM; in assay [5] it was 31.5 µM; in [6], 6.2 µM. Besides, the TGI in assay [7] was 7.37 µM; in [8] it was 2.9 µM; in assay [9], 56.2 µM; in [10], over 72.6 µM; in assay [11] it was 18.5 µM; in assay [12], 35.9 µM. Besides, the TGI in [13] is 22 µM; in assay [14], over 100 µM; in [15] it was over 90.8 µM; in assay [16], 30.3 µM; in assay [17], 7 µM; in assay [18], 40.8 µM. The TGI worked out at 21.6 µM in [19] and 24.8 µM in [20].
`C[C@H](CCC(=O)NCCS(=O)(=O)O)[C@H]1CC[C@H]2[C@@H]3[C@H](O)C[C@@H]4C[C@H](O)CC[C@]4(C)[C@H]3CC[C@]12C`: the TGI in assay [1], in assay [2], in [3], in [4], in assay [5] and in [6] was over 100 µM each time. Also, the TGI in assay [7], in assay [8], in assay [9], in [10], in assay [11] and in assay [12] was over 100 µM each time. Besides, the TGI in [13], in assay [14], in [15], in [16], in assay [17] and in assay [18] was over 100 µM in each case. In addition, the TGI in [19] and in assay [20] was over 100 µM each time.
For `O=c1[nH]c2ccc(Cl)cc2o1`, the TGI in [1], in [2], in [3], in [4], in assay [5] and in assay [6] was over 100 µM throughout. Also, the TGI in assay [7], in assay [8], in assay [9], in assay [10], in assay [11] and in assay [12] was over 100 µM throughout. Besides, the TGI in assay [13], in assay [14], in [15], in [16], in assay [17] and in assay [18] was over 100 µM in each case. Further, the TGI in assay [19] and in assay [20] was over 100 µM each time.
Regarding `COc1ccc2nc3n(c2c1)C(c1c(F)cccc1F)SC3` (stereo not given), the TGI in assay [1], in [2], in assay [3], in assay [4], in assay [5] and in assay [6] was over 100 µM in each case. Further, the TGI was over 100 µM in [7]; over 100 µM in assay [8]; 66.2 µM in assay [9]; over 100 µM in [10]; 59.2 µM in assay [11]; over 100 µM in assay [12]. In addition, the TGI was over 100 µM in assay [13]; 93.3 µM in assay [14]; over 100 µM in assay [15]; over 100 µM in assay [16]; over 100 µM in [17]; over 100 µM in assay [18]. The TGI in assay [19] and in assay [20] was over 100 µM in each case.
Turning to `CSc1ncc2c(C#N)c3[nH]c4ccccc4n3c(=O)c2n1`, the TGI is over 100 µM in assay [1]; 78.4 µM in assay [2]; over 100 µM in assay [3]; over 100 µM in assay [4]; over 100 µM in [5]; 67 µM in assay [6]. Also, the TGI in [7] is over 100 µM; in [8], 24.6 µM; in assay [9], over 100 µM; in assay [10], 87.8 µM; in [11] it was 99.3 µM; in assay [12] it was 48.7 µM. The TGI was over 100 µM in assay [13]; over 100 µM in assay [14]; 34.5 µM in assay [15]; over 100 µM in assay [16]; over 100 µM in assay [17]; over 100 µM in [18]. For the same compound, the TGI in [19] and in assay [20] was over 100 µM in each case.
Regarding `C[C@H](c1ccccc1)n1c(N)c(-c2nc3ccccc3s2)c2ccc([N+](=O)[O-])cc2c1=O`, the TGI in assay [1] was over 95.9 µM; in assay [2], over 85.1 µM; in assay [3], 5.81 µM; in assay [4], 98.9 µM; in [5], 61.2 µM; in [6], over 79.7 µM. In addition, the TGI was over 80.4 µM in assay [7]; 19.9 µM in assay [8]; over 63.1 µM in assay [9]; over 61.5 µM in assay [10]; 22 µM in assay [11]; over 65.7 µM in assay [12]. Also, the TGI in assay [13] was 54 µM; in assay [14], over 52.1 µM; in assay [15] it was 13 µM; in assay [16] it was over 100 µM; in [17], 17.6 µM; in assay [18], over 100 µM. Also, the TGI in assay [19] was 53.3 µM; in assay [20], 18.4 µM.
For `CCO[C@@]12CCC3CC4CC[C@@](OCC)(O1)C4C32` (stereo not given in full), the TGI in assay [1], in assay [2], in [3], in assay [4], in [5] and in assay [6] was over 100 µM throughout. Moreover, the TGI in assay [7], in assay [8], in assay [9], in assay [10], in assay [11] and in assay [12] was over 100 µM in each case. The TGI in assay [13], in [14], in [15], in assay [16], in assay [17] and in [18] was over 100 µM in each case. Moreover, the TGI in [19] and in [20] was over 100 µM in each case.
